Laboratory results as given in patent US20120190687A1, “Pyrazinylpyrazoles” (Bayer CropScience Ag, priority 2009, published 2012).

How the values were obtained:
[1] = logP by reversed-phase HPLC (EEC Directive 79/831 Annex V.A8); type: physicochemical
From the text: [table] The calibration is effected with unbranched alkan-2-ones (having 3 to 16 carbon atoms) with known log P values (log P values determined on the basis of the retention times by linear interpolation between two successive alkanones).

[2] = test system: Phaedon cochleariae; test: Phaedon test (PHAECO spray treatment); type: in vivo; details: 500 g/ha, Chinese cabbage discs, after 7 days
Description: Phaedon Test ([…] Spray Treatment) Solvent: 78.0 parts by weight of acetone • • 1.5 parts by weight of dimethylformamide Emulsifier: 0.5 part by weight of alkylaryl polyglycol ether To prepare an appropriate active ingredient preparation, 1 part by weight of active ingredient is mixed with the stated amounts of solvent and emulsifier, and the concentrate is diluted with emulsifier-containing water to the desired concentration. Discs of Chinese cabbage (Brassica pekinensis) are sprayed with an active ingredient preparation of the desired concentration and, after drying, populated with larvae of the mustard beetle (Phaedon cochleariae). After 7 days, the efficacy in % is determined. 100% means that all beetle larvae have been killed; 0% means that none of the beetle larvae have been killed.

[3] = test system: Spodoptera frugiperda; test: Spodoptera frugiperda test (SPODFR spray treatment); type: in vivo; details: 500 g/ha, maize leaf discs, after 7 days
Description: Spodoptera frugiperda Test (SPODFR Spray Treatment) Solvent: 78.0 parts by weight of acetone • • 1.5 parts by weight of dimethylformamide Emulsifier: 0.5 part by weight of alkylaryl polyglycol ether To prepare an appropriate active ingredient preparation, 1 part by weight of active ingredient is mixed with the stated amounts of solvent and emulsifier, and the concentrate is diluted with emulsifier-containing water to the desired concentration. Discs of maize leaves (Zea mays) are sprayed with an active ingredient preparation of the desired concentration and, after drying, populated with caterpillars of the armyworm (Spodoptera frugiperda). After 7 days, the efficacy in % is determined. 100% means that all caterpillars have been killed; 0% means that none of the caterpillars have been killed.

[4] = test system: Tetranychus urticae; test: Tetranychus test, OP-resistant (TETRUR spray treatment); type: in vivo; details: 500 g/ha, bean leaf discs, after 6 days
Description: Tetranychus Test, OP-resistant (TETRUR Spray Treatment)
Solvent: 78.0 parts by weight of acetone • • 1.5 parts by weight of dimethylformamide
Emulsifier: 0.5 part by weight of alkylaryl polyglycol ether
To prepare an appropriate active ingredient preparation, 1 part by weight of active ingredient is mixed with the stated amounts of solvent and emulsifier, and the concentrate is diluted with emulsifier-containing water to the desired concentration. Discs of bean leaves (Phaseolus vulgaris) infested by all stages of the red spider mite (Tetranychus urticae) are sprayed with an active ingredient preparation of the desired concentration. After 6 days, the efficacy in % is determined. 100% means that all spider mites have been killed; 0% means that none of the spider mites have been killed.

[5] = * LC-MS, acidic range, pH 2.7, 0.1% aqueous formic acid / acetonitrile
[6] = ** acidic range, pH 2.3, 0.1% aqueous phosphoric acid / acetonitrile

SMILES | log P [1, 5] | efficacy [2] [%] | further results
COc1cc(-c2c(C(F)(F)F)nn(-c3nccnc3OC)c2N)cc(C(F)(F)F)c1OC(C)C [Ex. 126] | 4.28* |  | 
Nc1c(-c2ccc(Cl)cc2)c(C(F)(F)F)nn1-c1nccnc1Cl [Ex. 7] | 3.59* |  | 
Nc1c(-c2cc(Cl)cc(C(F)(F)F)c2)c(C(F)(F)F)nn1-c1nccnc1-n1cccn1 [Ex. 31] | 3.94* |  | 
CCOc1nccnc1-n1nc(C(F)(F)F)c(-c2cc(Cl)cc(C(F)(F)F)c2)c1N(Cc1ccc(Cl)cc1)Cc1ccc(Cl)cc1 [Ex. 36] |  |  | log P [1, 6]: 7.36**
CCOc1nccnc1-n1nc(C(F)(F)F)c(-c2cc(Cl)cc(C(F)(F)F)c2)c1N(Cc1ccccc1)Cc1ccccc1 [Ex. 34] | 7* |  | 
Nc1c(-c2cc(Cl)cc(C(F)(F)F)c2)c(C(F)(F)F)nn1-c1nccnc1-n1ccnc1 [Ex. 44] | 2.76* | 100 | efficacy [3]: 100%
C#CCN(CC#C)c1c(-c2cc(Cl)cc(C(F)(F)F)c2)c(C(F)(F)F)nn1-c1nccnc1OC [Ex. 105] | 4.91* |  | 
COc1nccnc1-n1nc(C(F)(F)F)c(-c2cc(Cl)cc(C(F)(F)F)c2)c1NCc1ccc(Cl)cc1 [Ex. 39] | 5.51* |  | 
Nc1c(-c2cc(Cl)cc(C(F)(F)F)c2)c(C(F)(F)F)nn1-c1cncc(Cl)n1 [Ex. 19] | 5.26* |  | 
CCOc1cc(-c2c(C(F)(F)F)nn(-c3nccnc3OC)c2N)ccc1OCC(F)(F)F [Ex. 127] | 3.68* | 100 | efficacy [4]: 90%
CCOc1nccnc1-n1nc(C(F)(F)F)c(-c2cc(Cl)cc(C(F)(F)F)c2)c1NCc1ccc(OC)cc1 [Ex. 40] | 5.47* |  | 
C=C(C)CNc1c(-c2cc(Cl)cc(C(F)(F)F)c2)c(C(F)(F)F)nn1-c1nccnc1OC [Ex. 96] |  |  | efficacy [4]: 100%
Cc1cnc(C)c(-n2nc(C(F)(F)F)c(-c3cc(Cl)cc(C(F)(F)F)c3)c2N)n1 [Ex. 24] | 4.56* |  | 
CCOc1nccnc1-n1nc(C(F)(F)F)c(-c2cc(Cl)cc(C(F)(F)F)c2)c1NCc1ccccc1 [Ex. 35] | 5.62* |  | efficacy [4]: 90%
CC(C)Oc1nccnc1-n1nc(C(F)(F)F)c(-c2cc(Cl)cc(C(F)(F)F)c2)c1N [Ex. 13] | 4.84* | 83 | 
CNc1c(-c2cc(Cl)cc(C(F)(F)F)c2)c(C(F)(F)F)nn1-c1nccnc1OC [Ex. 106] | 4.51* |  | 
C[S+]([O-])c1nccnc1-n1nc(C(F)(F)F)c(-c2cc(Cl)cc(C(F)(F)F)c2)c1N (centres unmarked) [Ex. 29] | 3.29* |  | 
COc1nccnc1-n1nc(C(F)(F)F)c(-c2cc(F)c(Cl)cc2Cl)c1N [Ex. 166] | 3.66* | 100 | efficacy [4]: 90%
Nc1c(-c2cc(Cl)cc(C(F)(F)F)c2)c(C(F)(F)F)nn1-c1nccnc1C(F)(F)F [Ex. 130] | 4.57* | 100 | efficacy [3]: 100%
COc1cc(-c2c(C(F)(F)F)nn(-c3nccnc3OC)c2N)ccc1OCC(F)(F)F [Ex. 125] | 3.07* | 100 | efficacy [4]: 90%
CS(=O)(=O)c1nccnc1-n1nc(C(F)(F)F)c(-c2cc(Cl)cc(C(F)(F)F)c2)c1N [Ex. 30] | 3.54* |  | 
Nc1c(-c2cc(Cl)cc(C(F)(F)F)c2)c(C(F)(F)F)nn1-c1nccnc1-n1cc(F)cn1 [Ex. 45] | 4.24* |  | 
COc1cc(-c2c(C(F)(F)F)nn(-c3nccnc3OC)c2N)cc(Cl)c1OCC(F)(F)F [Ex. 134] | 3.88* | 100 | efficacy [3]: 100%

SMILES | log P [1, 5] | efficacy [2] [%] | further results
CCOc1nccnc1-n1nc(C(F)(F)F)c(-c2cc(Cl)cc(C(F)(F)F)c2)c1NCc1ccc(Cl)cc1 [Ex. 37] | 5.84* |  | 
COc1nccnc1-n1nc(C(F)(F)F)c(-c2ccc3c(c2)CCC(C)(C)O3)c1N [Ex. 145] | 3.68* | 100 | 
Nc1c(-c2cc(Cl)cc(C(F)(F)F)c2)c(C(F)(F)F)nn1-c1nccnc1Br [Ex. 129] | 4.27* |  | 
COc1nccnc1-n1nc(C(F)(F)F)c(-c2cc(Cl)cc(C(F)(F)F)c2)c1N(C)C [compound 107, 1-(3-methoxypyrazin-2-yl)-4-[3-chloro-5-(trifluoromethyl)phenyl]-3-(trifluoromethyl)-1H-pyrazole-5-dimethylamine] |  | 83 | chromatographic logP ([1]; reversed-phase HPLC column, * LC-MS, acidic range, pH 2.7, 0.1% aqueous formic acid / acetonitrile, read-out: log P): 5.11
Nc1c(-c2cc(Cl)cc(C(F)(F)F)c2)c(C(F)(F)F)nn1-c1nccnc1Cl [Ex. 16] | 4.28* |  | 
COc1ccc(CN(Cc2ccc(OC)cc2)c2c(-c3cc(Cl)cc(C(F)(F)F)c3)c(C(F)(F)F)nn2-c2nccnc2OC)cc1 [Ex. 42] | 6.25* |  | 
COc1nccnc1-n1nc(C(F)(F)F)c(-c2ccc(N(C)C)c(Cl)c2)c1N [Ex. 122] | 3.19* | 100 | efficacy [3]: 100%
COc1nccnc1-n1nc(C(F)(F)F)c(-c2cc(SCC(F)(F)F)c(Cl)cc2Cl)c1N [Ex. 179] | 4.14* |  | 
COc1nccnc1-n1nc(C(F)(F)F)c(-c2cc(Cl)cc(C(F)(F)F)c2)c1N(Cc1ccccc1)Cc1ccccc1 [Ex. 32] | 6.67* |  | 
COc1nccnc1-n1nc(C(F)(F)F)c(-c2cc(Cl)cc(C(F)(F)F)c2)c1N(Cc1ccc(Cl)cc1)Cc1ccc(Cl)cc1 [Ex. 38] | 7.11* |  | 
COc1nccnc1-n1nc(C(F)(F)F)c(-c2cc(Cl)c(Cl)c(SCC(F)(F)F)c2)c1N [Ex. 180] | 4.43* |  | 
CCOc1cc(-c2c(C(F)(F)F)nn(-c3nccnc3OC)c2N)cc(Br)c1OCC(F)(F)F [Ex. 140] | 4.3* | 100 | efficacy [3]: 100%
COc1nccnc1-n1nc(C(F)(F)F)c(-c2cc(Cl)c(Cl)c(C(F)(F)F)c2)c1N [Ex. 86] |  | 100 | efficacy [3]: 100%; log P [1, 6]: 4.47**
Cc1nccnc1-n1nc(C(F)(F)F)c(-c2cc(Cl)cc(C(F)(F)F)c2)c1N [Ex. 23] | 4.32* | 100 | efficacy [4]: 100%
COc1nccnc1-n1nc(C(F)(F)F)c(-c2ccc(Cl)c(SC)c2Cl)c1N [Ex. 165] | 4.14* |  | 
C=C(C)CN(CC(=C)C)c1c(-c2cc(Cl)cc(C(F)(F)F)c2)c(C(F)(F)F)nn1-c1nccnc1OC [compound 104] | 5.22* |  | 
COc1nccnc1-n1nc(C(F)(F)F)c(-c2cc(Cl)c(Cl)c([S+]([O-])CC(F)(F)F)c2)c1N (centres unmarked) [Ex. 182] | 3.69* |  | 
Nc1c(-c2ccc(Cl)c(Cl)c2)c(C(F)(F)F)nn1-c1nccnc1Cl [Ex. 1] | 4.02* |  | log P [1, 6]: 3.99**;
CCOc1nccnc1-n1nc(C(F)(F)F)c(-c2cc(Cl)cc(C(F)(F)F)c2)c1N(Cc1ccc(OC)cc1)Cc1ccc(OC)cc1 [Ex. 43] | 6.57* | 100 | efficacy [3]: 100%
N#Cc1nccnc1-n1nc(C(F)(F)F)c(-c2cc(Cl)cc(C(F)(F)F)c2)c1N [Ex. 27] | 3.93* | 100 | 
Nc1c(-c2cc(Cl)cc(Cl)c2)c(C(F)(F)F)nn1-c1nccnc1Cl [Ex. 56] | 4.16* |  | 
COc1nccnc1-n1nc(C(F)(F)F)c(-c2cc(C(F)(F)F)cc(Cl)n2)c1N [Ex. 55] | 4.54* |  | 
CN(C)c1nccnc1-n1nc(C(F)(F)F)c(-c2cc(Cl)cc(C(F)(F)F)c2)c1N [Ex. 25] | 4.28* |  | 
